Data: US20250049867A1, “[…] HERPESVIRUSES” (VIROGIN BIOTECH CANADA LTD., priority 2021, published 2025)
Values after ≈ are worked out from the molar mass of the structure shown.

Assays:
[1] = tested on: GL261 cells modified to express mNectin1; test: Orthotopic mNectin1-expressing GL261 glioblastoma model, intratumoral virus injection, survival; assay type: in vivo, mice; details: co-expressed with the mIL12 and anti-PD1 payload; GL261-luc-N1
Method: In vivo experiments were conducted to test the efficacy of the HSV oncolytic virus encoding different payload molecules against glioblastoma. Two orthotopic mouse models were used. One orthotopic model used CT2A cells modified to express FLuc which enables imaging post-implantation. The other orthotopic model used GL261 cells modified to express mNectin1, which enabled HSV infection, and also to express FLuc which enabled imaging post-implantation. Cells were implanted intracranially in 12-week-old C57B16 mice by stereotactic injection, and one week later the tumors were injected with the indicated viruses.
The control virus contained only the BAC sequences but not the payload sequence. In the first set of experiments, viruses encoding mouse IL-12 (mIL-12) and/or anti-PD-1 antibody and the control virus were each injected intratumorally at the indicated time and dosage according to FIG. 22A and FIG. 22B.
For the combination screens, GL261-luc-N1 cells were intracranially implanted in 12-week-old C57B16 mice, then 1 week later the tumors were injected with the combination of viruses encoding various candidate payloads.
GL261-luc-N1 or CT2A-luc-N1 cells were intracranially implanted in 12-week-old C57B16 mice, then 1 week later the tumors were injected with the indicated viruses.

[2] = dosed orally; cited from earlier work
[3] = tested on: ONCR-1010; test: Acyclovir sensitivity plaque titer assay on Vero cell monolayers; assay type: cell-based, HSV; details: 96 h, 90% reduction in plaque titer, 4 days
Method: (§1) Acyclovir can be used as a prodrug in HSV-TK mediated suicide gene therapy of cancer, which requires its phosphorylation by HSV thymidine kinase (TK). Virus sensitivity to acyclovir was assayed by adding increasing concentrations of the drug to intact Vero cell monolayers and then infecting with a standard dose of virus. The Vero cell monolayers were incubated for 4 days to allow for virus growth, and then the virus was harvested and the corresponding lysates assayed for virus by plaque assay. The IC90 was calculated as the amount of acyclovir that produced a 90% reduction in plaque titer compared to the untreated control.

[4] = tested on: ONCR-1010 with UL30-L774F mutation (ONCR-1012); test: as above; assay type: cell-based, HSV; details: 96 h, 90% reduction in plaque titer, 4 days
Method: as §1

Molecule	efficacy in combination screen (survival) [1]	bioavailability of acyclovir in the CNS [2]	IC90 [3] [µg/mL]	IC90 [4] [µg/mL]
15-hydroxyprostaglandin dehydrogenase [PGDH, 15-hydroxyprostaglandin dehydrogenase [NAD(+)]]	improved efficacy	–	–	–
Nc1nc2c(ncn2COCCO)c(=O)[nH]1 [acyclovir]	–	about 1.76 ug/ml	0.43 (≈ 1.91 µM)	1.84 (≈ 8.17 µM)
